Test results published in paper PMC10285648, “iTAG an optimized IMiD-induced degron for targeted protein degradation in human and murine cells” (iScience, 2023).
Peptide text beside a SMILES is read from it. * marks the point of attachment. Cbz = O=C(OCc1ccccc1)*

Legend:
cMYC-EGFP-DCD19 = experiment: Flow cytometry of EGFP signal, cMYC-EGFP-DCD19 in HMEC; type: cell-based, human; details: 10uM, 4h
Excerpt: (§1) To systematically delineate the optimal DCD/degrader combination for targeted protein degradation, we undertook a matrix approach evaluating all 23 DCD tags against 6 small molecule degraders. […] To control for any potential off-target effects of the IMiD/CeLMOD agents that could indirectly affect the target of interest, we designed controls in which the specific DCD and the EGFP sequences were interspaced by a P2A ribosomal “skipping” sequence,[32] leading to separate translation of the DCD and the target protein (Figure 1A). These constructs were then inserted into a doxycycline-inducible lentiviral vector system and stably expressed in hTERT immortalized human mammary epithelial cells (HMEC), a suitable model to assess the functional consequences of cMYC degradation. cMYC was tagged at the C-terminus end for the initial screening experiments.
(§2) Figure 1 Design and experimental evaluation of the DCD tags (A) Representation of the experimental pipeline used to evaluate the different DCD constructs. […] Median EGFP intensity was measured in each condition using flow cytometry (3 independent experiments, normalized to the control and represented as mean ± SD). […] The protein lysates were probed for cMYC levels using western blotting. […] Target loss was evaluated either by measuring EGFP median intensity using flow cytometry or western blotting for cMYC protein (3 independent experiments, normalized to the control and represented as mean ± SD). […] Target loss was evaluated as in (D) (3 independent experiments, normalized to the control and represented as mean ± SD). […] Protein lysates were collected and probed for cMYC and p21 using western blotting. […] Protein lysates were collected and probed for cMYC and p21 using western blotting. […] These were left out as controls with no test substance.
(§3) Following degrader treatment cells were collected and DAPI was added to the cell suspension at 1 μg/mL to allow the exclusion of dead cells. EGFP signal was measured using BD LSR II flow cytometer (BD Biosciences). FlowJo 10 Software (FlowJo) was used for data processing.

CT26 cells = experiment: Quantitative multiplexed proteomics of CT26 cells treated with thalidomide derivatives; type: cell-based, mouse; details: CT26, 10uM, 24h
Method: After showing that iTAG was active in mouse cells, we explored whether more potential degrons were active in the murine context. […]2216[50] and profiled the cellular proteomes using quantitative multiplexed proteomics. […] Data are plotted as Log2 fold change relative to DMSO versus Log10 of p value. (B) Proteome of CT26 CRBN KO cells treated with 10uM of FPFT2216 for 24h analyzed and plotted as in (A). (C) HEK293T, CT26, AT3 and 4434 cells treated with 10uM of FPFT2216 for 24h in presence of absence of MLN4924. […] were analyzed using western blotting. (D) Structural representation of PDE6D with the critical […] highlighted in red. (E) CT26, AT3 and 4434 cells transiently expressing WT or […] mutant Flag-PDE6D treated with 10uM of FPFT2216 for 16h. (F) Docking model for FPFT-2216 (in magenta) in the binding site of mouse CRBN (in orange). H-bond interactions are shown as cyan dashes. (G) Binding model for the ternary complex formed by mouse CRBN (in orange), mouse PDE6D (in cyan) and FPFT-2216 (in magenta), showing the […] loop close to the molecular glue. Samples for quantitative proteomics were prepared using the […] workflow.[60] Briefly, the cell pellets were lysed in a buffer containing 150 μL 0.1 M triethylammonium bicarbonate (TEAB), 1% sodium deoxycholate (SDC), 10% isopropanol, 50mM NaCl, 5 mM tris-2-carboxyethyl phosphine (TCEP), 10 mM iodoacetamide (IAA), universal nuclease, and supplemented with protease and phosphatase inhibitors. Samples were bath sonicated for 5 min, incubated at RT for 45 min and protein concentration was measured with the Bradford Protein Assay (Biorad) according to manufacturer instructions. Aliquots containing 30 μg of total protein were used for protein digestion. The resultant peptides were labeled with a tandem mass tag (TMTpro) multiplex reagent vial (Thermo Scientific) according to the manufacturer instructions. All the TMT-labelled samples were combined in equal amounts to a single tube. The TMT-peptide mixture was acidified with 1% formic acid and the precipitated SDC was removed by centrifugation. The sample was then dried with a centrifugal vacuum concentrator. LC-MS analysis was performed on the Dionex Ultimate 3000 UHPLC system coupled with the Orbitrap Lumos mass spectrometer (Thermo Scientific). Samples were analyzed with the EASY-Spray C18 capillary column (75 μm × 50 cm, 2 μm) at 50°C. […] MS3 quantification was obtained with higher-energy collisional dissociation (HCD) fragmentation of the top 5 most abundant CID fragments isolated with synchronous precursor selection (SPS). […] The SEQUEST-HT search engine was used to analyze the acquired mass spectra in Proteome Discoverer 2.4 (Thermo Scientific) for protein identification and quantification. […]

cMYC-EGFP-DCD23 = experiment: Degradation of cMYC-EGFP-DCD23 in HMEC (flow cytometry, western blotting); type: cell-based, human; details: co-treatment with CC220 (10μM), 4h, western blotting
Excerpt: as §1, §2, §3
(§4) Cells were lysed with SDS lysis buffer (2% SDS, 10% Glycerol, 50mM Tris pH 6.8) and boiled at 95°C for 30min. Protein concentration was measured using Pierce BCA Protein Assay Kit (ThermoFischer) following manufacturer’s recommendations. Samples were ran in NuPAGETM 10% Bis-Tris Midi electrophoresis gels (Invitrogen) using NuPAGETM MES SDS running buffer (ThermoFischer Scientific).
(§5) For western blotting membranes were blocked in a solution of 5% (w/v) bovine serum albumin (BSA; Sigma-Aldrich) dissolved in TBS-0.1% Tween 20 (Sigma-Aldrich) then incubated at 4°C overnight with the primary antibodies diluted in 5% (w/v) BSA/TBS-T. The membranes where then washed and incubated with anti-mouse and/or anti-rabbit secondary antibodies (LI-COR Biosciences) for 2h at RT diluted in 5% (w/v) BSA/TBS-T then washed and imaged using the LI-COR Odyssey (LI-COR Biosciences). Images were analyzed using Image Studio Lite software (LI-COR Biosciences).

[1] = test system: N-terminally tagged cMYC, RBM39, BRD4 (Flag-HA-DCD23 or Flag-HA-FKBP12^[F36V]); experiment: Western blotting, iTAG versus dTAG fused proteins in SUM159; type: cell-based, human
Method: The fusion constructs were stably expressed in SUM159 cells and loss of protein was determined by western blotting.
(§6) The protein lysates were probed for HA using western blotting. […] The protein lysates were probed for HA using western blotting. […] Median EGFP intensity was measured in each condition using flow cytometry. (3 independent experiments, represented as mean ± SD).
The dTAG system has also been adapted to direct targets to the E3 CRL2^VHL using the PROTAC dTAG^V-1^16. […] We evaluated the degradation N-terminally tagged cMYC and RBM39 dTAG^V-1, we included BRD4 as a control as it was reported to be a well degraded target in the initial dTAG optimization (Figure 3C).[15]
(§7) For the pHAGE-PGK constructs: DCD23, SuperDegron and FKBP12^F36V were separately cloned into a pHAGE-PGK DEST backbone. cDNA encoding the indicated protein was then cloned from pENTR221 into the pHAGE-PGK-DCD23, pHAGE-PGK-SuperDegron or pHAGE-PGK-FKBPF36V DEST vector using Gateway cloning. SUM159 cells were transduced with the indicated lentivirus and selected with puromycin.
as §4, with “Scientific). Proteins were subsequently transferred to an Immobilon-P polyvinylidene Difluoride (PVDF) membrane (Merck Millipore) using the wet-transfer method (Bio-Rad) in a transfer buffer consisting of 20% (v/v) methanol and 10% protein electrophoresis buffer (24.77 mM Tris and 0.192 M glycine).” for “Scientific).”
as §5

N-terminally tagged EGFP = experiment: Flow cytometry of N-terminally tagged EGFP in SUM159 (iTAG, SD, dTAG); type: cell-based, human; details: SUM159, 4h, normalized values; dTAG-13 for FKBP12 F36V, CC220 for SD and iTAG
Method: as §6
As we were finalizing our study on iTAG, a similar IMiD based degron was publish by the Ebert group.[28] The SuperDegron (SD) a 60 amino acid tag based on a chimera of Aiolos/ZFP91 was used to generate degradable chimeric antigen receptors (CAR).[28]
as §7

## Cc1nc2cccc(N)c2c(=O)n1C1CCC(=O)NC1=O (stereo not drawn) [CC122, Avadomide]
cMYC-EGFP-DCD19
  loss of cMYC-EGFP signal: robust loss of cMYC-EGFP signal

## O=C1CCC(N2Cc3cc(CNC(=O)C(F)(F)c4ccc(Cl)cc4)ccc3C2=O)C(=O)N1 (stereo not drawn) [CC90009]
CT26 cells
  effect on cellular proteome: no impact

## CC(C)C[C@@H](C=O)NC(=O)[C@H](CC(C)C)NC(=O)[C@H](CC(C)C)NC(=O)OCc1ccccc1 [MG132] (Cbz-Leu-Leu-Leu-aldehyde)
cMYC-EGFP-DCD23
  effect on CC220-induced cMYC degradation: inhibited cMYC degradation

## NS(=O)(=O)OC[C@@H]1C[C@@H](n2ccc3c(N[C@H]4CCc5ccccc54)ncnc32)C[C@@H]1O [MLN4924]
cMYC-EGFP-DCD23
  effect on CC220-induced cMYC degradation: inhibited cMYC degradation

## Nc1cccc2c1C(=O)N(C1CCC(=O)NC1=O)C2=O (stereo not drawn) [Pomalidomide]
cMYC-EGFP-DCD19
  loss of cMYC-EGFP signal: robust loss of cMYC-EGFP signal

## O=C1CCC(N2C(=O)c3ccc(NS(=O)(=O)c4ccccc4OC(F)(F)F)cc3C2=O)C(=O)N1 (stereo not drawn) [StJude6989]
CT26 cells
  effect on cellular proteome: no impact

## O=C1CCC(N2C(=O)c3ccccc3C2=O)C(=O)N1 (stereo not drawn) [Thalidomide]
cMYC-EGFP-DCD19
  loss of cMYC-EGFP signal: robust loss of cMYC-EGFP signal

## CC[C@H](C(=O)N1CCCC[C@H]1C(=O)O[C@H](CCc1ccc(OC)c(OC)c1)c1ccccc1OCC(=O)NCCCCCCOc1cccc2c1C(=O)N(C1CCC(=O)NC1=O)C2=O)c1cc(OC)c(OC)c(OC)c1 (stereo partly drawn) [dTAG-13]
[1]; SUM159, dTAG-13 on dTAG, CC220 on iTAG
  concentrations at which targets are degraded: less pronounced or even not observed at high concentrations
[1]; SUM159, dTAG-13 on dTAG, CC220 on iTAG, 1, 2 or 4h
  time of onset of degradation of cMYC and RBM39: moderate degradation only after 4h

## CC[C@H](C(=O)N1CCCC[C@H]1C(=O)O[C@H](CCc1ccc(OC)c(OC)c1)c1ccccc1OCC(=O)NCCCCCCC(=O)N[C@H](C(=O)N1C[C@H](O)C[C@H]1C(=O)N[C@@H](C)c1ccc(-c2scnc2C)cc1)C(C)(C)C)c1cc(OC)c(OC)c(OC)c1 [dTAG^V-1]
[1]; SUM159, BRD4, cMYC, RBM39, 4h
  degradation compared between dTAG variants: more robust degradation compared to dTAG-13

## FKBP12^[F36V]: mutant FKBP12 protein tag of the dTAG system, degraded with dTAG-13
N-terminally tagged EGFP
  DC50: 0.38 nM
  DCmax: 95%
